{
  "source": "patent US12251449B2",
  "about": "“Synthetic multidomain peptide biomaterials that inhibit inducible nitric oxide synthase” (William Marsh Rice University, priority 2019, dated 2025)",
  "key": {"[1]": {"assay": "Subcutaneous hydrogel implants, histology (persistence, degradation, host response)", "assay_type": "in vivo, mice", "conditions": "3-21 days", "procedure": "(§1) Subcutaneous experiments and histology. C57BL/6J female mice were purchased from The Jackson Laboratory at age 8-12 weeks for subcutaneous characterization experiments. Mice were housed under specific pathogen-free conditions in standard temperature and lighting conditions with free access to food and water, and experiments were conducted with approval of the Institutional Animal Care and Use Committee (IACUC) at Rice University and according to NIH guidelines. Mice were injected with 100 μL MDP hydrogels in each of four separate sites in the subcutaneous space of the dorsal flank after the skin was shaved and sterilized with alcohol. At days 3, 7, 14, and 21 the mice were euthanized and the dorsal skin around the entire implant was removed, fixed overnight in 10% neutral buffered formalin, processed and paraffin embedded, and finally sectioned at […] thickness for staining using standard Masson's trichrome or hematoxylin and eosin (H&E) procedures, as well as immunohistochemical analyses (e.g., anti-nitrotyrosine IHC, or α-SMA blood vessel analysis).\nEvaluation of material biocompatibility, degradation, and immune response profile in vivo was performed by histological analysis of hydrogel implants injected subcutaneously in healthy mice. […]"}, "iNOS": {"system": "iNOS", "assay": "Anti-nitrotyrosine immunostaining of subcutaneously injected hydrogels", "assay_type": "in vivo, mice", "conditions": "subcutaneous implants, 3 and 7 days post injection", "procedure": "as §1\nImmunohistochemistry staining was performed on hydrogel implant tissue sections to further study in vivo properties of the L-NIL-MDP compared to related cationic MDPs. Anti-nitrotyrosine immunostaining was used to assess relative levels of nitrosylation of tyrosine within and around the subcutaneously injected hydrogel implants as a marker of iNOS inhibition (FIGS. 7A-H). It is known that the formation of nitric oxide (NO) and other nitrogen oxides in vivo can lead to observable post-translation modifications of peptides and proteins (Ischiropoulos, 2003). For example, surface-exposed 3-nitrotyrosine can be used as a marker of cell or tissue inflammation and damage by reactive nitrogen and oxygen species such as NO (Ahsan, 2013). The higher the local levels of iNOS activity, the greater should be the density of nitrosylated tyrosine. Therefore, visualization of nitrotyrosine levels by targeted antibodies can serve as a general indication of in vivo iNOS activity, or in the case of the L-NIL-MDP, local iNOS inhibition."}, "VEGF": {"system": "VEGF", "assay": "Serum VEGF ELISA in mice bearing B16-F0 melanoma tumors", "assay_type": "in vivo", "conditions": "5 days after single 100 μL intratumoral injection", "procedure": "Evaluation of in vivo VEGF reduction using murine B16-F0 melanoma tumor model. C57BL/6J male mice were purchased from The Jackson Laboratory. […] All experiments were performed with approval of IACUC at Baylor College of Medicine (BCM) and followed established protocols. B16-F0 melanoma cell line was purchased from American Type Culture Collection (ATCC) and maintained according to manufacturer instructions (DMEM high-glucose with 10% fetal bovine serum and 1% penicillin/streptomycin). C57BL/6J mice were injected subcutaneously (s.c.) with 3×10^5 B16-F0 cells in a single flank. Once tumors became palpable (day 7 post-inoculation) mice were injected intratumorally (i.t.) with either vehicle buffer control Hank's Balanced Salt Solution (HBSS), free L-NIL dissolved in HBSS at 20 mM, K2-MDP hydrogel at 1 wt. % (5.6 mM peptide), or L-NIL-MDP hydrogel at 1 wt. % (5.2 mM peptide, or approximately 20 mM L-NIL functional groups). All injections were done using 100 μL total injection volume.\nMice were euthanized 5 days following i.t. injections and tumor/blood were collected. […] VEGF quantification of undiluted serum was performed using a mouse VEGF Quantikine ELISA kit (R&D Systems, Minneapolis, MN) following manufacturer's instructions. […] Statistical differences were evaluated using Tukey's multiple comparisons test. […]"}, "[2]": {"assay": "IgG release kinetics from hydrogels", "assay_type": "physicochemical", "conditions": "compared with alginate and K2-MDP", "description": "Whether the drug-mimicking L-NIL-MDP hydrogel could effectively load and control the delivery of IgG compared to other biomaterials was investigated."}, "[3]": {"conditions": "prior studies (Leach et al., 2019); cited from earlier work"}},
  "note": "“Also recorded” adds a separate entry of the source. *1 amine or outer side, *2 acyl side, *3 side chain or, on linkers, in order; H or OH if unused. Where a SMILES comes first, the peptide text is derived from it. [ ]: non-standard residue; d: D form. X1 = CC(=N)NCCCC[C@H](N[*:1])C(=O)[*:2]",
  "data": [
    {"smiles": "CC(=N)NCCCC[C@H](NC(=O)[C@H](CCCCNC(C)=N)NC(=O)[C@H](CC(C)C)NC(=O)[C@H](CO)NC(=O)[C@H](CC(C)C)NC(=O)[C@H](CO)NC(=O)[C@H](CC(C)C)NC(=O)[C@H](CO)NC(=O)[C@H](CC(C)C)NC(=O)[C@H](CO)NC(=O)[C@H](CC(C)C)NC(=O)[C@H](CO)NC(=O)[C@H](CC(C)C)NC(=O)[C@H](CO)NC(=O)[C@H](CCCCNC(C)=N)NC(=O)[C@H](CCCCNC(C)=N)NC(C)=O)C(N)=O", "note": "[L-NIL-MDP] (Ac-[X1][X1]SLSLSLSLSLSL[X1][X1]-NH2)", "values": [
      {"measurement": "inflammatory reaction after injection (in words)", "setting": "[1]", "result": "does not cause a chronic inflammatory reaction"},
      {"measurement": "nitrotyrosine staining intensity (in words)", "setting": "iNOS", "result": "significantly lower; also recorded: lowest degree of nitrotyrosine staining"},
      {"measurement": "reduction of systemic VEGF levels (in words)", "setting": "VEGF", "result": "significantly reduced systemic VEGF levels; also recorded: Significant VEGF reduction"},
      {"measurement": "control of IgG release (in words)", "setting": "[2]", "result": "able to control the release of IgG more effectively"},
      {"measurement": "hydrogel observable post injection", "setting": "[3]", "result": 21, "unit": "days"}
    ]}
  ]
}
